The results in this text go back to patent US12180226B2, “Spirotricycle RIPK1 inhibitors and methods of uses thereof” (Merck Sharp & Dohme LLC, priority 2021, dated 2024).

Usually EC50 stands for the concentration giving half of the maximal effect.

The target in this assay is RIPK1 (recombinant GST-RIPK1 kinase domain, residues 1-327) (Homo sapiens (Human), UniProt Q13546). Put plainly: RIPK1-ADP-Glo Enzymatic Assay. Type of assay: biochemical. To be noted: ADP-Glo; 25 nM GST-RIPK1, 300 μM ATP; assay lower limit ~25 nM; read-out: RIPK1 V0 Ec50. The procedure, abridged: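 ADP-Glo luminescence read after 150 min kinase reaction (300 μM ATP, 3 μM dephosphorylated MBP) using 25 nM Sf21-made GST-kinase domain (1-327), preincubated 30 min with compound. HEPES pH 7.3, 1% DMSO; ten-point 1:3 series from 100000 nM, EC50 via four-parameter sigmoidal regression.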
RIPK1 (recombinant GST-RIPK1 kinase domain, residues 1-327), sequence (Q13546 1-327): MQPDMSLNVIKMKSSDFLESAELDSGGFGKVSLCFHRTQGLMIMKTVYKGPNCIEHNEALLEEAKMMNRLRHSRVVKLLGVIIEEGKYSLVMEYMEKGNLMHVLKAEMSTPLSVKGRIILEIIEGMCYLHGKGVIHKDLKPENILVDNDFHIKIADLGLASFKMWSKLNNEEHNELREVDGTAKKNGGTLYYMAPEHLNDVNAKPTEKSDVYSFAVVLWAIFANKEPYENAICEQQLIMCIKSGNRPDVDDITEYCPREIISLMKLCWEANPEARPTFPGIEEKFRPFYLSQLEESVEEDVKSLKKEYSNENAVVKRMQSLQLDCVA
Background: ADP-Glo first removes unused ATP, then detects ADP through luciferase.
For the compound `CC(C)(C)NC(=O)c1nc(N2CCC3(CC2)O[C@@H]2CC[C@@H](c4cc(F)cc(F)c4)N2C3=O)ncc1F` [Example 7.15, N-tert-butyl-2-[(5′S,7a′R)-5′-(3,5-difluorophenyl)-3′-oxotetrahydro-1H,3′H-spiro[piperidine-4,2′-pyrrolo[2,1-b][1,3]oxazol]-1-yl]-5-fluoropyrimidine-4-carboxamide], the EC50 came to 171 nM.

For `N#Cc1cccc(C(=O)N2CCC3(CC2)O[C@@H]2CC[C@@H](c4cc(F)cc(F)c4)N2C3=O)c1F` [Example 6.33, 3-[(5′S,7a′R)-5′-(3,5-difluorophenyl)-3′-oxotetrahydro-1H,3′H-spiro[piperidine-4,2′-pyrrolo[2,1-b][1,3]oxazole]-1-carbonyl]-2-fluorobenzonitrile], the EC50 turned out to be 40.2 nM.

For `O=C(c1cc(Cl)ccc1F)N1CCC2(CC1)O[C@@H]1CC[C@@H](c3cc(F)cc(F)c3)N1C2=O` [Example 5.61, (5′S,7a′R)-1-(5-chloro-2-fluorobenzoyl)-5′-(3,5-difluorophenyl)tetrahydro-3′H-spiro[piperidine-4,2′-pyrrolo[2,1-b]oxazol]-3′-one], the EC50 was less than 25 nM. As to `O=C1N2[C@@H](CC[C@H]2c2ccccc2)OC12CCN(c1cc(F)ccn1)CC2` [Example 4.14, (5′S,7a′R)-1-(4-fluoropyridin-2-yl)-5′-phenyltetrahydro-3′H-spiro[piperidine-4,2′-pyrrolo[2,1-b] [1,3]oxazol]-3′-one], the EC50 was less than 25 nM. In the case of `O=C(c1cc(F)ccc1Cl)N1CCC2(CC1)O[C@@H]1CC[C@@H](c3ccccc3F)N1C2=O` [Example 1.15, (5′S,7a′R)-1-(2-chloro-5-fluorobenzoyl)-5′-(2-fluorophenyl)tetrahydro-3′H-spiro[piperidine-4,2′-pyrrolo[2,1-b]oxazol]-3′-one] it was 33.4 nM; in that of `O=C(c1cccc(C23CC(C2)C3)n1)N1CCC2(CC1)O[C@@H]1CC[C@@H](c3cc(F)cc(F)c3)N1C2=O` [Example 6.137, (5′S,7a′R)-1-[6-(bicyclo[1.1.1]pentan-1-yl)pyridine-2-car-bonyl]-5-(3,5-difluoro-phenyl)tetrahydro-3′H-spiro[piperidine-4,2′-pyrrolo[2,1-b] [1,3]oxazol]-3′-one], 78.7 nM; in that of `COc1nc(N2CCC3(CC2)O[C@@H]2CC[C@@H](c4cc(F)cc(F)c4)N2C3=O)ncc1Cl` [Example 4.62, (5′S,7a′R)-1-(5-chloro-4-methoxypyrimidin-2-yl)-5′-(3,5-difluorophenyl)tetrahydro-3′H-spiro[piperidine-4,2′-pyrrolo[2,1-b] [1,3]oxazol]-3′-one], 39.2 nM. In the case of `O=C1N2[C@@H](CC[C@H]2c2ccccc2)OC12CCN(c1cc(C(F)(F)F)ncn1)CC2` [Example 4.33, (5′S,7a′R)-5′-phenyl-1-[6-(trifluoromethyl)pyrimidin-4-yl]tetrahydro-3′H-spiro[piperidine-4,2′-pyrrolo[2,1-b] [1,3]oxazol]-3′-one] it was 50 nM; in that of `COc1cccc(C(=O)N2CCC3(CC2)O[C@@H]2CC[C@@H](c4cc(F)cc(F)c4)N2C3=O)n1` [Example 6.12, (5′S,7a′R)-5′-(3,5-difluorophenyl)-1-(6-methoxypyridine-2-carbonyl)tetrahydro-3′H-spiro[piperidine-4,2′-pyrrolo[2,1-b] [1,3]oxazol]-3′-one], 25.1 nM. As for `N#Cc1cc(N2CCC3(CC2)O[C@@H]2CC[C@@H](c4ccccc4)N2C3=O)ccn1` [Example 4.31, 4-[(5′S,7a′R)-3′-oxo-5′-phenyltetrahydro-1H,3′H-spiro[piperidine-4,2′-pyrrolo[2,1-b] [1,3]oxazol]-1-yl]pyridine-2-carbonitrile], the EC50 was less than 25 nM. In the case of `COc1nc(N2CCC3(CC2)O[C@@H]2CC[C@@H](c4ccccc4)N2C3=O)ncc1F` [Example 11.29, (5′S,7a′R)-1-(5-fluoro-4-methoxypyrimidin-2-yl)-5′-phenyltetrahydro-3′H-spiro[piperidine-4,2′-pyrrolo[2,1-b][1,3]oxazol]-3′-one] it was less than 25 nM; in that of `Cc1nc(N2CCC3(CC2)O[C@@H]2CC[C@@H](c4ccccc4)N2C3=O)ncc1-c1ncnn1C` [Example 21.7, (5′S,7a′R)-1-[4-methyl-5-(1-methyl-1H-1,2,4-triazol-5-yl)pyrimidin-2-yl]-5′-phenyltetrahydro-3′H-spiro[piperidine-4,2′-pyrrolo[2,1-b][1,3]oxazol]-3′-one], 181 nM; in that of `Cc1cnc(C(=O)N2CCC3(CC2)O[C@@H]2CC[C@@H](c4cc(F)cc(F)c4)N2C3=O)cn1` [Example 6.3, (5′S,7a′R)-5′-(3,5-difluorophenyl)-1-(5-methylpyrazine-2-carbonyl)tetrahydro-3′H-spiro[piperidine-4,2′-pyrrolo[2,1-b] [1,3]oxazol]-3′-one], 60.1 nM. In the case of `N#Cc1ccnc(N2CCC3(CC2)O[C@@H]2CC[C@@H](c4cc(F)cc(F)c4)N2C3=O)n1` [Example 4.12, 2-[(5′S,7a′R)-5′-(3,5-difluorophenyl)-3′-oxotetrahydro-1H,3′H-spiro[piperidine-4,2′-pyrrolo[2,1-b] [1,3]oxazol]-1-yl]pyrimidine-4-carbonitrile] it was less than 25 nM. The same measure for `O=C(c1ccoc1)N1CCC2(CC1)O[C@@H]1CC[C@@H](c3cccc(F)c3)N1C2=O` [Example 6.125, (5′S,7a′R)-5′-(3-fluoro-phenyl)-1-(furan-3-carbonyl)tetrahydro-3′H-spiro[piperidine-4,2′-pyrrolo[2,1-b] [1,3]oxazol]-3′-one]: less than 25 nM; for `O=C(c1cccc2nccnc12)N1CCC2(CC1)O[C@@H]1CC[C@@H](c3cc(F)cc(F)c3)N1C2=O` [Example 6.55, (5′S,7a′R)-5′-(3,5-difluorophenyl)-1-(quinoxaline-5-carbon-yl)tetrahydro-3′H-spiro[piperidine-4,2′-pyrrolo[2,1-b][1,3]-oxazol]-3′-one]: 280 nM; for `Cc1occc1C(=O)N1CCC2(CC1)O[C@@H]1CC[C@@H](c3cc(F)cc(F)c3)N1C2=O` [Example 5.37, (5′S,7a′R)-5′-(3,5-difluoro-phenyl)-1-(2-methylfuran-3-carbonyl)tetrahydro-3′H-spiro[piperidine-4,2′-pyrrolo[2,1-b]oxazol]-3′-one]: less than 25 nM.

Regarding `Cc1cc2c(nc1N1CCC3(CC1)O[C@@H]1CC[C@@H](c4ccccc4)N1C3=O)CNC2=O` [Example 4.187, (5′S,7a′R)-1-(3-methyl-5-oxo-6,7-dihydro-5H-pyrrolo[3,4-b]pyridin-2-yl)-5′-phenyltetrahydro-3′H-spiro[piperidine-4,2′-pyrrolo[2,1-b] [1,3]oxazol]-3′-one], the EC50 amounted to 357 nM. Regarding `O=C(c1ccn2nncc2c1)N1CCC2(CC1)O[C@@H]1CC[C@@H](c3cc(F)cc(F)c3)N1C2=O` [Example 6.22, (5′S,7a′R)-5′-(3,5-difluorophenyl)-1-([1,2,3]triazolo[1,5-a]pyridine-5-carbon-yl)tetrahydro-3′H-spiro[piperidine-4,2′-pyrrolo[2,1-b][1,3]oxazol]-3′-one], the EC50 came out at 30.5 nM. As for `O=C1N2[C@H](OC13CCN(c1ccnc4c(F)cnn14)CC3)[C@@H](O)C[C@H]2c1ccccc1` [Example 4.271, (5′S,7′S,7a′R)-1-(3-fluoropyrazolo[1,5-a]pyrimidin-7-yl)-7′-hydroxy-5′-phenyltetrahydro-3′H-spiro[piperidine-4,2′-pyrrolo[2,1-b] [1,3]oxazol]-3′-one], the EC50 is less than 25 nM.
